In paper PMC6967409 (Frontiers in Chemistry, 2020):
Several values for one entry are separate records, joined by “and”; a condition that tells them apart may be missing. Equal entries are not always repeated. Where two headings read alike, the source gives them in different places.

Legend:
P. falciparum NF54 [1] = test system: P. falciparum NF54; set-up: method as in Coertzen et al. (2018); conditions: pLDH, 48 h; ref Coertzen et al. (2018); read-out: Metabolic IC50 NF54; cited from earlier work
P. falciparum Dd2 [2] = test system: P. falciparum Dd2; set-up: method as in Coertzen et al. (2018); conditions: pLDH, 48 h; ref Coertzen et al. (2018); read-out: Metabolic IC50 Dd2; cited from earlier work
P. falciparum NF54 [3] = test system: P. falciparum NF54; set-up: method as in Coertzen et al. (2018); conditions: SYBR Green I; ref Coertzen et al. (2018); read-out: Proliferative IC50 NF54; cited from earlier work
P. falciparum K1 [4] = test system: P. falciparum K1; set-up: method as in Coertzen et al. (2018); conditions: SYBR Green I; ref Coertzen et al. (2018); read-out: Proliferative IC50 K1; cited from earlier work
HepG2 cells [5] = conditions: read-out: Cytotoxicity EC50 HepG2; ref Coertzen et al. (2018); cited from earlier work
P. falciparum NF54 [6] = assay: Metabolic (parasite LDH) assay, asexual ring stage parasites, 48 h; assay type: cell-based; conditions: Plasmodium falciparum, pLDH, CQ-sensitive NF54
Experimental: (§1) P. falciparum parasites (NF54, K1, and W2) were cultured in vitro in human erythrocytes (A^+ or O^+) under 90% N2, 5% CO2, and 5% O2 atmospheric conditions with supplemented RPMI 1640 media (Sigma Aldrich) containing Albumax II, as previously described (Verlinden et al., [2011]). This study was carried out according the guidelines set out by the Faculty of Health Sciences Ethical Committee, Ethical Clearance no. EC-120821/077. The protocol was approved by the Faculty of Health sciences ethical committee at the University of Pretoria. All subjects gave written informed consent in accordance with the Declaration of Helsinki. Parasite proliferation was monitored microscopically using Giemsa stained smears. Synchronized ring stage parasites (>95%) were obtained using a 5% D-sorbitol (Sigma Aldrich) treatment. […] Gametocyte cultures were kept stationary under 90% N2, 5% CO2, and 5% O2 atmospheric conditions at 37°C and treated with 50 mM N-acetyl-glucosamine (NAG) to eliminate residual invasion of asexual parasites.
(§2) Working solutions of the derivatives were prepared from a 10 mM stock solution in 100% DMSO in supplemented RPMI 1640 media containing Albumax II with a final DMSO concentration of <0.1%, previously determined as being non-toxic to intraerythrocytic asexual parasites and gametocytes. Dose responses were assayed using a two-fold serial drug dilution on in vitro >95% ring stage intraerythrocytic P. falciparum parasites at 37°C under 90% N2, 5% CO2, and 5% O2 atmospheric conditions, detecting both parasite lactate dehydrogenase (pLDH) activity as a metabolic marker following a 48 h drug exposure (1.5–2% parasitemia and 2% hematocrit; Makler et al., [1993]) and SYBR Green I fluorescence as proliferative marker following a 96 h drug exposure (1% parasitemia and 1% hematocrit). […] Data analysis was performed using GraphPad Prism 7.

P. falciparum Dd2 [7] = assay: as above; assay type: cell-based; conditions: Plasmodium falciparum, pLDH, Dd2 CQ, pyrimethamine resistant
Experimental: as §2

P. falciparum K1 [8] = assay: Proliferative (SYBR Green I) assay, asexual parasites, 96 h; assay type: cell-based; conditions: Plasmodium falciparum, ±SEM
Experimental: as §1, §2

P. falciparum NF54 [9] = assay: as above; assay type: cell-based; conditions: Plasmodium falciparum, ±SEM
Experimental: as §1, §2

P. falciparum W2 [10] = assay: as above; assay type: cell-based; conditions: Plasmodium falciparum, ±SEM
Experimental: as §1, §2

Cytotoxicity, MTT assay = assay type: cell-based; conditions: Chinese hamster, CHO cells
Experimental: (§3) Cytotoxicity (EC50) was determined against Chinese hamster ovarian (CHO) using a 3-(4,5-dimethylthiazol-2-yl)-2,5-diphenyltetrazolium bromide (MTT) assay and hepatocellular carcinoma cells (HepG2) using the Cytoselect LDH cytotoxicity assay kit (Cell Biolabs).

[11] = Cytotoxicity, Cytoselect LDH cytotoxicity assay kit; assay type: cell-based; conditions: human, HepG2 cells
Experimental: as §3

[12] = test system: P. falciparum NF54 early stage gametocytes (>90% stage I–III); assay: Gametocytocidal luciferase reporter assay, early stage, 48 h; assay type: cell-based; conditions: Plasmodium falciparum, NF54, 48 h, read-out: Early Stage (EG, Luc 48 h) IC50
Experimental: as §1
(§4) Gametocytocidal activity was determined using the luciferase reporter line (Reader et al., [2015]) to derive dose responses with two-fold serial drug dilutions for 48 h against early stage gametocytes (day 5 post-induction population, >90% stage I–III) and 10-fold serial drug dilutions for 72 h against late stage gametocytes (day 10 post-induction population, >90% late stage IV–V) (2% gametocytemia, 2% hematocrit), at 37°C under 90% N2, 5% CO2, and 5% O2 atmospheric conditions.

[13] = test system: P. falciparum NF54 late stage gametocytes (>90% stage IV and V); assay: Gametocytocidal luciferase reporter assay, late stage, 72 h; assay type: cell-based, Plasmodium falciparum
Experimental: as §1, §4

[14] = test system: P. falciparum stage III/IV/V and mature stage V (>95% stage V) gametocytes; assay: Stage-specificity and kill kinetics against late stage gametocytes, luciferase reporter line; assay type: cell-based; conditions: Plasmodium falciparum, 72 h treatment
Experimental: Late stage gametocytes, stage III, IV/V (10% stage III, 50% stage IV, 40% stage V population on day 10 post-induction) or mature stage V (>95% stage V on day 13 post-induction) were used to determine the differential stage specificity and kill kinetics (speed-of-action) of the compounds. Dose responses were determined using the luciferase reporter line, exposed to 10-fold serial drug dilutions for 72 h at 37°C under 90% N2, 5% CO2, and 5% O2 atmospheric conditions. […] Additionally, a drug washout step was included by replacing the drug-containing spent medium with fresh media (without drug) followed by a further 24 h incubation prior to measuring luciferase activity. […] Data are the average from a single independent biological experiment with technical triplicates, error bars indicate ±SD.

[15] = test system: P. berghei ANKA GFP-Luc-SMcon sporozoites; assay: P. berghei-luciferase liver stage bioluminescence assay (causal prophylactic mode) in HepG2-CD81 cells; assay type: cell-based, Plasmodium berghei
Procedure, shortened: (§5)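 HepG2-CD81 cells seeded onto compounds in DMSO, infected with P. berghei luciferase-expressing sporozoites; liver-stage growth read as luciferase bioluminescence after BrightGlo luciferin addition. Cytotoxicity measured in parallel on uninfected HepG2 plates via CellTiterGlo ATP luminescence.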

[16] = HepG2 cytotoxicity bioluminescence assay (CellTiterGlo, ATP); assay type: cell-based, human; conditions: human, uninfected HepG2-CD81 cells
Procedure, shortened: as §5

HepG2 cells [17] = assay: as above; assay type: cell-based, human; conditions: two biological replicates listed in one cell; listed as 28 (WHN-14)
Procedure, shortened: as §5

P. falciparum W2 [18] = assay: T0 [3H]-hypoxanthine drug susceptibility assay; assay type: cell-based; conditions: Plasmodium falciparum
[19] = test system: P. falciparum ARC08-22 (4G); assay: T0 [3H]-hypoxanthine drug susceptibility assay, artemisinin-resistant clone (C580Y); assay type: cell-based, Plasmodium falciparum; conditions: preliminary, W2 as comparative sensitive strain
[20] = test system: asexual P. falciparum NF54, Dd2, K1, W2; assay: Asexual P. falciparum, metabolic (pLDH) and proliferative (SYBR Green I) platforms; assay type: cell-based; conditions: Plasmodium falciparum; read-out: IC50 for drug sensitive NF54 parasites across both assay platforms
Experimental: Data analysis was performed using GraphPad Prism 7.
The in vitro activities of the new derivatives were determined against drug sensitive NF54 and multi-drug resistant Dd2, K1, and W2 intraerythrocytic asexual P. falciparum malaria parasite strains using both a metabolic (parasite LDH) and a proliferative (SYBR Green I fluorescence) assay readout (Table 1).

For `CCN(CC)CCCC(C)Nc1ccnc2cc(Cl)ccc12` (centres unmarked) [CQ, chloroquine], the IC50 (P. falciparum NF54 [1]) is given as 10 ± 1.6 nM, the IC50 (P. falciparum Dd2 [2]) is given as 251 ± 19.9 nM and the IC50 (P. falciparum NF54 [3]) is given as 10 ± 3 nM. The IC50 (P. falciparum K1 [4]) was 154 ± 14 nM and the EC50 (HepG2 cells [5]) was 58.4 nM.
`C[C@H]1[C@H](N2CCN(C(=O)c3ccc(F)cc3)CC2)O[C@@H]2O[C@@]3(C)CC[C@H]4[C@H](C)CC[C@@H]1[C@@]24OO3` [Compound 28] showed an IC50 (P. falciparum NF54 [6]) of 1.06 ± 0.19 nM, an IC50 (P. falciparum Dd2 [7]) of 1.5 ± 0.6 nM and an IC50 (P. falciparum K1 [8]) of 2.1 ± 1.1 nM. It also gave an IC50 (P. falciparum NF54 [9]) of 2.8 ± 0.2 nM, an IC50 (P. falciparum W2 [10]) of 2.7 ± 0.2 nM and an EC50 (Cytotoxicity, MTT assay) of 190000 nM. It also gave an EC50 [11] of 190 nM, an IC50 [12] of 19.5 ± 8.5 nM and an IC50 ([13]; Plasmodium falciparum, NF54, 72 h, read-out: Late Stage (LG, Luc 72 h) IC50, >90% stage IV and V gametocytes, ±SEM) of 0.4 to 0.7 nM. For the same compound, the IC50 ([13]; read-out: Late Stage (LG, Luc 72 h) IC50, >90% stage IV and V gametocytes, ±SEM) was 0.6 ± 0.3 nM, the IC50 [14] was under 10 nM and the Emax ([15]; Plasmodium berghei, 48 h, two biological replicates listed in one cell, read-out: P.berghei-Luciferase Liver Stage Bioluminescence Assay: Maximum measured (%)) was 101%. The IC50 ([15]; Plasmodium berghei, HepG2, 48 h, liver stage, HepG2 host cells, luciferase after 48 h, ±SD, read-out: P. berghei sporozoites IC50) was 114 ± 15.6 nM, the IC50 ([15]; Plasmodium berghei, two biological replicates listed in one cell, read-out: P.berghei-Luciferase Liver Stage Bioluminescence Assay: IC50) was 103 nM and the inhibition at 10 µM ([15]; Plasmodium berghei, Conc. 10 μM, read-out: P. berghei sporozoites Maximum inhibition %) was 104 ± 4.24%. For the same compound, the IC50 ([15]; two biological replicates listed in one cell, listed as 28 (WHN-14), read-out: P.berghei-Luciferase Liver Stage Bioluminescence Assay: IC50) was 125 nM, the IC50 at 72 h ([16]; two biological replicates listed in one cell) was 10200 nM and the EC50 at 72 h ([16]; uninfected HepG2, ATP bioluminescence) was 8320 nM. For the same compound, the “HepG2 Cytotoxicity Bioluminescence Assay: Maximum measured (%)” value (HepG2 cells [17]) was 61.7% and 66.5%, the IC50 (HepG2 cells [17]) was 6440 nM and the IC50 (P. falciparum W2 [18]; W2, read-out: W2 IC50) was 0.1 ± 0.03 nM. For the same compound, the IC90 (P. falciparum W2 [18]; W2, read-out: W2 IC90) was 0.19 ± 0.02 nM, the “susceptibility of ARC08-22 (4G) clone (in words)” value [19] was “no indication of reduced susceptibility” and the IC50 [20] was 1 to 2 nM.
